Data from patent US20040067998A1, “Antifungal and/or antiparasitic pharmaceutical composition and novel indole derivatives as active principle of such a composition” (priority 2003, published 2004).
In brackets after ≈: the same amount, converted by molar mass. Several values for one entry are separate records, joined by “and”; a condition that tells them apart may be missing. Equal values may be shown once. Read-outs that look alike come from different tables or passages of the source.

Columns and labels:
[1] = tested on: Aspergillus fumigatus (strain n°AF 980003); assay: Antifungal activity on a clinical strain of Aspergillus fumigatus (Alamar Blue microplate test); assay type: cell-based; settings: strain AF980003
[2] = tested on: intracellular amastigote form of Leishmania mexicana; assay: Anti-leishmanian activity on the amastigote form in peritoneal macrophages of BALB/c mice; assay type: cell-based
[3] = tested on: Candida albicans (strain n° CA980001); assay: Antifungal activity on a clinical strain of Candida albicans (MTT colorimetric microplate test); assay type: cell-based; settings: for MIC / CMI or CI80 Candida albicans (CA980001): strain CA980001; for MIC: read-out: CMI or CI80 Candida albicans (CA980001); for activity of inhibition of Candida albicans (in words): summary of Tables 27 to 40
[4] = tested on: promastigote stage of Leishmania mexicana; assay: Antiparasitic activity on the promastigote form of Leishmania (MTT); assay type: cell-based; settings: for IC50: read-out: CI50 Leishmania mexicana Promastigotes
[5] = tested on: Candida parapsilosis (2 strains); assay: Antifungal activity in vitro on clinical strains of Candida: parapsilosis (2 strains); assay type: cell-based
[6] = tested on: Candida albicans (4 strains); assay: Antifungal activity in vitro on clinical strains of Candida: albicans (4 strains); assay type: cell-based; settings: for activity against strains of Candida albicans (in words): clinical strains
[7] = tested on: Candida lusitaniae (1 strain); assay: Antifungal activity in vitro on clinical strains of Candida: lusitaniae (1 strain); assay type: cell-based; settings: for activity against Candida lusitaniae (in words): clinical strain; for CI80 on clinical strains of Candida: strain CL980001 (Candida lusitaniae)
[8] = tested on: Candida krusei (4 strains); assay: Antifungal activity in vitro on clinical strains of Candida: krusei (4 strains); assay type: cell-based
[9] = tested on: Candida albicans (CA98001); assay: Antifungal activity in vivo on a model of disseminated candidiasis; design: species or system female Swiss mice
[10] = strain CP980001 (Candida parapsilosis)
[11] = strain CP980002 (Candida parapsilosis)
[12] = strain CA980001 (Candida albicans)
[13] = strain CA980002 (Candida albicans)
[14] = strain CA980003 (Candida albicans)
[15] = strain CA980005 (Candida albicans)
[16] = strain CK980001 (Candida krusei)
[17] = strain CK980002 (Candida krusei)
[18] = strain CK980003 (Candida krusei)
[19] = strain CK980004 (Candida krusei)

## Brc1ccc(C(Cn2ccc3ccccc32)n2ccnc2)cc1 (stereo not shown) [Cpsé 84, 1-[2-(4-Bromophenyl)-2-(1H-imidazol-1-yl)ethyl]-1H-indole]
[1]; Aspergillus fumigatus, read-out: CMI or CI80 Aspergillus fumigatus (AF980003)
  MIC: > 100 µM
[2]
  activity against the intracellular amastigote form of Leishmania (in words): very active
[2]; Leishmania mexicana, Peritoneal macrophage, intracellular amastigote form, read-out: CI50 Intracellular amastigotes
  IC50: 3.1 ± 0.04 µg/mL (≈ 8.46 µM)
[3]; Candida albicans, 24 h
  MIC: > 100 µM
[4]
  activity against Leishmania mexicana (in words): most active
[4]; Leishmania mexicana
  IC50: 0.16 µg/mL and 370 nM

## OC(Cn1ccnc1)(Cn1ccc2ccccc21)c1ccc(Cl)cc1 (stereo not shown) [compound 74]
[5]; clinical strains
  activity against Candida parapsilosis (in words): very active
[5]; [10]
  CI80 on clinical strains of Candida: 690 ± 30 nM
[5]; [11]
  CI80 on clinical strains of Candida: 3710 ± 1246 nM
[1]
  CMI or CI80 Aspergillus fumigatus (AF980003): 83 ± 4 μM and 29 ± 1 μg/mL
[6]
  activity against strains of Candida albicans (in words): very active
[6]; [12]
  CI80 on clinical strains of Candida: 61 ± 4 nM
[6]; [13]
  CI80 on clinical strains of Candida: 470 ± 17 nM
[6]; [14]
  CI80 on clinical strains of Candida: 70 ± 4.7 nM
[6]; [15]
  CI80 on clinical strains of Candida: 300 ± 24 nM
[7]
  activity against Candida lusitaniae (in words): very active
  CI80 on clinical strains of Candida: 630 ± 10 nM
[8]; [16]
  CI80 on clinical strains of Candida: 59290 ± 1330 nM
[8]; [17]
  CI80 on clinical strains of Candida: 7740 ± 130 nM
[8]; [18]
  CI80 on clinical strains of Candida: >100000 nM
[8]; [19]
  CI80 on clinical strains of Candida: >100000 nM
[3]
  CMI or CI80 Candida albicans (CA980001): 0.02 µg/mL
  MIC: 0.07 µM (≈ 0.0246 µg/mL)
  activity of inhibition of Candida albicans (in words): most active
[4]; promastigotes
  CI50 Leishmania mexicana Promastigotes: 5 ± 0.2 µg/mL (≈ 14.2 µM)
  IC50: 15000 ± 600 nM

## OC(Cn1ccnc1)(Cn1ccc2ccccc21)c1ccc(Cl)cc1Cl (stereo not shown) [compound 75]
[5]; [10]
  CI80 on clinical strains of Candida: 1000 ± 100 nM
[5]; [11]
  CI80 on clinical strains of Candida: 860 ± 40 nM
[1]
  CMI or CI80 Aspergillus fumigatus (AF980003): 4 ± 0 μM and 1 ± 0 μg/mL
[6]
  activity against strains of Candida albicans (in words): active
[6]; [12]
  CI80 on clinical strains of Candida: <1 nM
[6]; [13]
  CI80 on clinical strains of Candida: 650 ± 10 nM
[6]; [14]
  CI80 on clinical strains of Candida: 640 ± 10 nM
[6]; [15]
  CI80 on clinical strains of Candida: 710 ± 10 nM
[7]
  CI80 on clinical strains of Candida: 300 ± 100 nM
[9]; Test N°1, 20 mg/kg/d for 5 d
  activity on survival at the end of the experiment (D14) (in words): not on survival at the end of the experiment
  activity on the survival at D4-D5 (in words): slight activity
[9]; Test N°1, day 8 (D8), daily dose of 20 mg/kg
  survival improved compared to the control batch: 25%
[9]; Test N°2, 2 × 30 mg/kg/d for 5 d intraperitoneally
  survival at D14: Compound 75: no survival at end of experiment (D14).
[9]; Test N°2, 2 × 30 mg/kg/d for 5 d intraperitoneally, monitored 14 days (78: from D9 to D14)
  effect of treatment on the survival of the animals (in words): ineffective
[8]; clinical strains, b748: one strain
  activity against Candida krusei (in words): active
[8]; [16]
  CI80 on clinical strains of Candida: 620 ± 2 nM
[8]; [18]
  CI80 on clinical strains of Candida: >1000 nM
[8]; [19]
  CI80 on clinical strains of Candida: 4200 ± 100 nM
[3]
  MIC: <0.001 µM
  activity of inhibition of Candida albicans (in words): most active
[4]; promastigotes
  CI50 Leishmania mexicana Promastigotes: 1.47 µg/mL (≈ 3.81 µM)
  IC50: 4000 nM

## OC(Cn1ccnc1)(Cn1ccc2ccccc21)c1ccc(F)cc1 (stereo not shown) [compound 76]
[5]; [10]
  CI80 on clinical strains of Candida: 4100 ± 350 nM
[5]; [11]
  CI80 on clinical strains of Candida: 6320 ± 140 nM
[1]
  CMI or CI80 Aspergillus fumigatus (AF980003): 88 ± 2 μM and 30 ± 0.7 μg/mL
[6]
  activity against strains of Candida albicans (in words): very active
[6]; [12]
  CI80 on clinical strains of Candida: 67 ± 5 nM
[6]; [13]
  CI80 on clinical strains of Candida: 610 ± 22 nM
[6]; [14]
  CI80 on clinical strains of Candida: 250 ± 110 nM
[6]; [15]
  CI80 on clinical strains of Candida: 440 ± 44 nM
[7]
  activity against Candida lusitaniae (in words): very active
  CI80 on clinical strains of Candida: 690 ± 80 nM
[8]; [16]
  CI80 on clinical strains of Candida: 65380 ± 3710 nM
[8]; [17]
  CI80 on clinical strains of Candida: 38050 ± 7240 nM
[8]; [18]
  CI80 on clinical strains of Candida: 85270 ± 324 nM
[8]; [19]
  CI80 on clinical strains of Candida: >100000 nM
[3]
  CMI or CI80 Candida albicans (CA980001): 0.03 µg/mL
  MIC: 0.08 µM (≈ 0.0268 µg/mL)
  activity of inhibition of Candida albicans (in words): most active
[4]; promastigotes
  CI50 Leishmania mexicana Promastigotes: 3 ± 0.03 µg/mL (≈ 8.95 µM)
  IC50: 9200 ± 90 nM
